The record followed here is patent US12590062B2, “PD-1/PD-L1 inhibitors” (Gilead Sciences, Inc., priority 2017, dated 2026).

One may read the EC50 as the concentration giving half of the maximal effect.

The target of the test is T1, PD-1/PD-L1 interaction (Homo sapiens, UniProt Q9NZQ7).
T1 construct: expressed in transfected cells; host or cells: CHO cells (aAPC-PD-L1) co-cultured with Jurkat cells overexpressing PD-1 and an NFAT-luciferase reporter
T1 sequence (Q9NZQ7 19-290): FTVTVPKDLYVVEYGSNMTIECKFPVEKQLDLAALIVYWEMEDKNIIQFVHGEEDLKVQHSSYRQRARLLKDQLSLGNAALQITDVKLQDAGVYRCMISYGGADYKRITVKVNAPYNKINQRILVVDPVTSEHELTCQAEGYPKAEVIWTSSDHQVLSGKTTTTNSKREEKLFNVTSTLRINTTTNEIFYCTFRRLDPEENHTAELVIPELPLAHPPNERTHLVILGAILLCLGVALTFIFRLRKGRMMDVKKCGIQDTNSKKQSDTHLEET
Put plainly: PD-1/PD-L1 NFAT reporter co-culture assay. It counts as cell-based. To be noted: Jurkat PD-1 NFAT-luciferase cells co-cultured with aAPC-PD-L1 CHO cells, 6 hrs at 37° C.; read-out: EC50 NFAT Luciferase. The method in brief:
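Restoration of TCR-driven NFAT luciferase signal: 6 h, 37 °C co-culture of PD-1 Jurkat reporter cells (pre-mixed with compound) on overnight-seeded PD-L1/anti-CD3 CHO monolayer. ONE-Glo luminescence; dose-response fitted to four-parameter equation for EC50.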
On to `COc1nc(OCc2cccc(-c3cccc(COc4nc(OC)c(CN[C@H](C(=O)O)[C@@H](C)O)cc4Cl)c3C)c2C)c(Cl)cc1CN[C@H](C(=O)O)[C@@H](C)O` [Example 51, (2S,2′S,3R,3′R)-2,2′-((((((2,2′-dimethyl-[1,1′-biphenyl]-3,3′-diyl)bis(methylene))bis(oxy))bis(5-chloro-2-methoxypyridine-6,3-diyl))bis(methylene))bis(azanediyl))bis(3-hydroxybutanoic acid)], for which the EC50 worked out at 0.105 µM.
On to `COc1nc(OCc2cccc(-c3cccc(COc4nc(OC)c(CN[C@@H](C)C(N)=O)cc4Cl)c3C)c2C)c(Cl)cc1CN[C@@H](C)C(N)=O` [Example 101, (2S,2′S)-2,2′-((((((2,2′-dimethyl-[1,1′-biphenyl]-3,3′-diyl)bis(methylene))bis(oxy))bis(5-chloro-2-methoxypyridine-6,3-diyl))bis(methylene))bis(azanediyl))dipropanamide], for which the EC50 stood at 1.8 µM.
To `Cc1c(OC(F)(F)c2ccc(CNCC(=O)O)cc2)cccc1-c1cccc(OC(F)(F)c2ccc(CNCC(=O)O)cc2)c1C` [Example 278, 2,2′-((((((2,2′-dimethyl-[1,1′-biphenyl]-3,3′-diyl)bis(oxy))bis(difluoromethylene))bis(4,1-phenylene))bis(methylene))bis(azanediyl))diacetic acid] belongs not below 50 µM; to `Cc1c(COc2nc(OCc3cnn(C)c3)c(CNC[C@@H](O)CC(=O)O)cc2Cl)cccc1-c1cccc(COc2nc(OCc3cnn(C)c3)c(CNC[C@@H](O)CC(=O)O)cc2Cl)c1C` [Example 136, (3S,3′S)-4,4′-((((((2,2′-dimethyl-[1,1′-biphenyl]-3,3′-diyl)bis(methylene))bis(oxy))bis(5-chloro-2-((1-methyl-1H-pyrazol-4-yl)methoxy)pyridine-6,3-diyl))bis(methylene))bis(azanediyl))bis(3-hydroxybutanoic acid)], 0.529 µM.
The figure for `COc1nc(OCc2cccc(-c3cccc(COc4nc(OC)c(CN[C@H]5CCCC[C@@H]5O)cc4Cl)c3C)c2C)c(Cl)cc1CN[C@H]1CCCC[C@@H]1O` [Example 229, (1S,1′S,2S,2′S)-2,2′-((((((2,2′-dimethyl-[1,1′-biphenyl]-3,3′-diyl)bis(methylene))bis(oxy))bis(5-chloro-2-methoxypyridine-6,3-diyl))bis(methylene))bis(azanediyl))bis(cyclohexan-1-ol)] is 1.22 µM.
To `CNC(=O)[C@](C)(CO)NCc1cc(Br)c(OCc2cccc(-c3cccc(COc4nc(OC)c(CN[C@@](C)(CO)C(=O)NC)cc4Br)c3C)c2C)nc1OC` [Example 274, (2S,2′S)-2,2′-((((((2,2′-dimethyl-[1,1′-biphenyl]-3,3′-diyl)bis(methylene))bis(oxy))bis(5-bromo-2-methoxypyridine-6,3-diyl))bis(methylene))bis(azanediyl))bis(3-hydroxy-N,2-dimethylpropanamide)] belongs 1.2 µM; to `COc1nc(OCc2cccc(-c3cccc(COc4nc(OC)c(CN[C@H]5CCCC[C@H]5O)cc4Cl)c3C)c2C)c(Cl)cc1CN[C@H]1CCCC[C@H]1O` [Example 228, (1R,1′R,2S,2′S)-2,2′-((((((2,2′-dimethyl-[1,1′-biphenyl]-3,3′-diyl)bis(methylene))bis(oxy))bis(5-chloro-2-methoxypyridine-6,3-diyl))his(methylene))his(azanediyl))his(cyclohexan-1-ol)], 0.844 µM.
For `COc1nc(OCc2cccc(-c3cccc(COc4nc(OC)c(CN5CCOC[C@H]5C(=O)O)cc4Cl)c3C)c2C)c(Cl)cc1CN1CCOC[C@H]1C(=O)O` [Example 233, (3S,3′S)-4,4′-(((((2,2′-dimethyl-[1,1′-biphenyl]-3,3′-diyl)bis(methylene))bis(oxy))bis(5-chloro-2-methoxypyridine-6,3-diyl))bis(methylene))bis(morpholine-3-carboxylicacid)], the EC50 turned out to be 11.6 µM.
Turning to `Cc1c(COc2cc(OCc3cccc(S(C)(=O)=O)c3)c(CN[C@@](C)(CO)C(=O)O)cc2Cl)cccc1-c1cccc(COc2cc(OCc3cccc(S(C)(=O)=O)c3)c(CN[C@@](C)(CO)C(=O)O)cc2Cl)c1C` [Example 57, (2S,2′S)-2,2′-((((((2,2′-dimethyl-[1,1′-biphenyl]-3,3′-diyl)bis(methylene))bis(oxy))bis(5-chloro-2-((3-(methylsulfonyl)benzyl)oxy)-4,1-phenylene))bis(methylene))bis(azanediyl))bis(3-hydroxy-2-methylpropanoic acid)], the EC50 turned out to be 0.351 µM.
The figure for `COc1nc(OCc2cccc(-c3cccc(COc4nc(OC)c(CN5CCC5C(N)=O)cc4Cl)c3C)c2C)c(Cl)cc1CN1CCC1C(N)=O` (centres unmarked) [Example 65, 1,1′-(((((2,2′-dimethyl-[1,1′-biphenyl]-3,3′-diyl)bis(methylene))bis(oxy))bis(5-chloro-2-methoxypyridine-6,3-diyl))bis(methylene))bis(azetidine-2-carboxamide)] is 3.35 µM.
With `Cc1c(COc2cc(OCc3cncc(C#N)c3)c(CNC[C@@H](O)CC(=O)O)cc2Cl)cccc1-c1cccc(-c2nc3ccc(CNC[C@@H](O)CC(=O)O)cc3s2)c1C` [Example 286, (S)-4-(((2-(3′-((4-((((S)-3-carboxy-2-hydroxypropyl)amino)methyl)-2-chloro-5-((5-cyanopyridin-3-yl)methoxy)phenoxy)methyl)-2,2′-dimethyl-[1,1′-biphenyl]-3-yl)benzo[d]thiazol-6-yl)methyl)amino)-3-hydroxybutanoic acid], the EC50 is 0.232 µM.
Regarding `COc1nc(OCc2cccc(-c3cccc(COc4nc(OC)c(CNCC(=O)NS(=O)(=O)N(C)C)cc4Cl)c3C)c2C)c(Cl)cc1CNCC(=O)NS(=O)(=O)N(C)C` [Example 174, 2,2′-((((((2,2′-dimethyl-[1,1′-biphenyl]-3,3′-diyl)bis(methylene))bis(oxy))bis(5-chloro-2-methoxypyridine-6,3-diyl))bis(methylene))bis(azanediyl))bis(N-(N,N-dimethylsulfamoyl)acetamide)], the EC50 is not below 50 µM.
To `COc1nc(OCc2cccc(-c3cccc(COc4nc(OC)c(CN[C@](C)(CO)C(=O)O)cc4C4CC4)c3C)c2C)c(C2CC2)cc1CN[C@](C)(CO)C(=O)O` [Example 64, (2R,2′R)-2,2′-((((((2,2′-dimethyl-[1,1′-biphenyl]-3,3′-diyl)bis(methylene))bis(oxy))bis(5-cyclopropyl-2-methoxypyridine-6,3-diyl))bis(methylene))bis(azanediyl))bis(3-hydroxy-2-methylpropanoic acid)] belongs 9.78 µM; to `N#Cc1cncc(COc2nc(OCc3cccc(-c4cccc(COc5ccc(CNC[C@@H](O)CC(=O)O)c(OCc6cncc(C#N)c6)n5)c4Cl)c3Cl)ccc2CNC[C@@H](O)CC(=O)O)c1` [Example 195, (3S,3′S)-4,4′-((((((2,2′-Dichloro-[1,1′-biphenyl]-3,3′-diyl)bis(methylene))bis(oxy))bis(2-((5-cyanopyridin-3-yl)methoxy)pyridine-6,3-diyl))bis(methylene))bis(azanediyl))bis(3-hydroxybutanoic acid)], 0.408 µM.
